The values below are quoted from earlier work in patent US7230101B1, “Synthesis of methotrexate-containing heterodimeric molecules” (GPC Biotech, Inc., priority 2002, dated 2007).

The target in one data set is 6 X His. The note with it: dissociation constant, known in the art, read-out: Affinity.
Data set [1] has as its target Glutathione-S-Transferase. The note with it: read-out: Affinity, dissociation constant, known in the art.
A further data set has as its target Tet-R (Escherichia coli, UniProt P04483). The note with it: dissociation constant, known in the art, read-out: Affinity.

Sequence of Tet-R (P04483 whole entry): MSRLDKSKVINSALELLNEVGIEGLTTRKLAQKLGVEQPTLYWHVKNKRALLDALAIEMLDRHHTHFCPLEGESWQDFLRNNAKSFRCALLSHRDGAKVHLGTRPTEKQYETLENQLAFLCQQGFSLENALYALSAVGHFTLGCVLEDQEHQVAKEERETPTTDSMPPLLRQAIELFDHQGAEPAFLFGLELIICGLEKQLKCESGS

`[Ni]` [Ni]: the Kd on 6 X His is 800 nM. For `N[C@@H](CCC(=O)N[C@@H](CS)C(=O)NCC(=O)O)C(=O)O` [Glutathione], the Kd in data set [1] is 24000 nM. On to `CN(C)[C@@H]1C(=O)C(C(N)=O)=C(O)[C@@]2(O)C(=O)C3=C(O)c4c(O)cccc4[C@@](C)(O)[C@H]3C[C@@H]12` [Tetracyclin], for which the Kd on Tet-R is 24 nM.
